The supplement of paper PMC11208160
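Further: IS621 bridge recombinase in Escherichia coli cells against a fixed T5 target plasmid.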

Assay: recombinant UMI read abundance after kanamycin selection (control-corrected) (log10(CPM+1)); higher = more efficient recombination; extreme values may be limits of the assay; sequences stand for … in AGTGCAGAGAAAATCGGCCAGTTTTCTCTGCCTGCAGTCCGCATGCCGTGGGACCCCTTGGGTTCTAACCTGTTGCCTAGATTTATGCAGCGGACTGCCTTTCTCCCAAAGTGATAAACCGG…AGGTTGGTTTCACT; site = the 11-nt donor
Outline: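 Each donor and donor-binding-loop pair was tracked by a 12-nt UMI on a plasmid carrying a promoterless kanamycin gene. With a second plasmid supplying a fixed target and T7-inducible IS621 bridge recombinase, the pool was plated in Escherichia coli on IPTG (0.07 mM) plus kanamycin or unselected. Sequencing of recombinant UMIs across the donor–target junction gave counts expressed as log10(CPM+1) after replicate averaging and control-derived scaling.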
For “TAATGAGCATGGACCGGTTTTCCCGGTAATCCGTATTTGGG (site TAATGACCTCC)”, the “recombinant UMI read abundance (log10)” value was 0.00784.
In the case of “TAATGAGCATGGACCGGTTTTCCCGGTAATCCGTATTTGGG (site TAATGAGCTAC)”, the “recombinant UMI read abundance (log10)” value is reported as 0.0203.
With “TAATGAGCATGGACCGGTTTTCCCGGTAATCCGTATTTGGG (site TAATGAGCTCA)” the “recombinant UMI read abundance (log10)” value was 0.00405.
In the case of “TAATGAGCATGGACCGGTTTTCCCGGTAATCCGTATTTGGG (site TAATGAGCTCC)”, the “recombinant UMI read abundance (log10)” value is reported as 0.304.
In the case of “TAATGAGCATGGACCGGTTTTCCCGGTAATCCGTATTTGGG (site TAATGAGCTCG)”, the “recombinant UMI read abundance (log10)” value is reported as 0.0101.
With “TAATGAGCATGGACCGGTTTTCCCGGTAATCCGTATTTGGG (site TAATGAGCTCT)” the “recombinant UMI read abundance (log10)” value was 0.0248.
With “TAATGAGCATGGACCGGTTTTCCCGGTAATCCGTATTTGGG (site TAATGAGCTGC)” the “recombinant UMI read abundance (log10)” value was 0.
For “TAATGAGCATGGACCGGTTTTCCCGGTAATCCGTATTTGGG (site TAATGAGCTTC)”, the “recombinant UMI read abundance (log10)” value was 0.0139.
With “TAATGAGCATGGACCGGTTTTCCCGGTAATCCGTATTTGGG (site TAATGATCTCC)” the “recombinant UMI read abundance (log10)” value was 0.
With “TAATGAGCATGGACCGGTTTTCCCGGTAATCCGTATTTGGG (site TAATGCGCTCC)” the “recombinant UMI read abundance (log10)” value was 0.00982.
In the case of “TAATGAGCATGGACCGGTTTTCCCGGTAATCCGTATTTGGG (site TAATGGGCTCC)”, the “recombinant UMI read abundance (log10)” value is reported as 0.0142.
For “TAATGAGCATGGACCGGTTTTCCCGGTAATCCGTATTTGGG (site TAATGTGCTCC)”, the “recombinant UMI read abundance (log10)” value was 0.
With “TAATGAGCATGGACCGGTTTTCCCGGTAATCCGTATTTGGG (site TAATTAGCTCC)” the “recombinant UMI read abundance (log10)” value was 0.00449.
For “TAATGAGCATGGACCGGTTTTCCCGGTAATCCGTATTTGGG (site TACTGAGCTCC)”, the “recombinant UMI read abundance (log10)” value was 0.00582.
For “TAATGAGCATGGACCGGTTTTCCCGGTAATCCGTATTTGGG (site TAGTGAGCTCC)”, the “recombinant UMI read abundance (log10)” value was 0.0336.
In the case of “TAATGAGCATGGACCGGTTTTCCCGGTAATCCGTATTTGGG (site TATTGAGCTCC)”, the “recombinant UMI read abundance (log10)” value is reported as 0.0136.
With “TAATGAGCATGGACCGGTTTTCCCGGTAATCCGTATTTGGG (site TCATGAGCTCC)” the “recombinant UMI read abundance (log10)” value was 0.203.
For “TAATGAGCATGGACCGGTTTTCCCGGTAATCCGTATTTGGG (site TGATGAGCTCC)”, the “recombinant UMI read abundance (log10)” value was 0.00873.
In the case of “TAATGAGCATGGACCGGTTTTCCCGGTAATCCGTATTTGGG (site TTATGAGCTCC)”, the “recombinant UMI read abundance (log10)” value is reported as 0.0156.
In the case of “TAATGCTCATGGACCGGTTTTCCCGGTAATCCGTATTTGAA (site AAATGCTCTTT)”, the “recombinant UMI read abundance (log10)” value is reported as 0.111.
With “TAATGCTCATGGACCGGTTTTCCCGGTAATCCGTATTTGAA (site CAATGCTCTTT)” the “recombinant UMI read abundance (log10)” value was 0.61.
In the case of “TAATGCTCATGGACCGGTTTTCCCGGTAATCCGTATTTGAA (site GAATGCTCTTT)”, the “recombinant UMI read abundance (log10)” value is reported as 0.106.
In the case of “TAATGCTCATGGACCGGTTTTCCCGGTAATCCGTATTTGAA (site TAATGCTCTTT)”, the “recombinant UMI read abundance (log10)” value is reported as 1.19.
In the case of “TAATGTCCATGGACCGGTTTTCCCGGTAATCCGTATTTGTA (site TAAAGTCCTTA)”, the “recombinant UMI read abundance (log10)” value is reported as 0.459.
In the case of “TAATGTCCATGGACCGGTTTTCCCGGTAATCCGTATTTGTA (site TAACGTCCTTA)”, the “recombinant UMI read abundance (log10)” value is reported as 0.254.
With “TAATGTCCATGGACCGGTTTTCCCGGTAATCCGTATTTGTA (site TAAGGTCCTTA)” the “recombinant UMI read abundance (log10)” value was 0.586.
In the case of “TAATGTCCATGGACCGGTTTTCCCGGTAATCCGTATTTGTA (site TAATGTCCTTA)”, the “recombinant UMI read abundance (log10)” value is reported as 0.766.
With “TAATTAGCATGGACCGGTTTTCCCGGTAATCCGTATTTGGG (site TAATAAGCTCC)” the “recombinant UMI read abundance (log10)” value was 0.00264.
In the case of “TAATTAGCATGGACCGGTTTTCCCGGTAATCCGTATTTGGG (site TAATCAGCTCC)”, the “recombinant UMI read abundance (log10)” value is reported as 0.0055.
In the case of “TAATTAGCATGGACCGGTTTTCCCGGTAATCCGTATTTGGG (site TAATGAGCTCC)”, the “recombinant UMI read abundance (log10)” value is reported as 0.0311.
With “TAATTAGCATGGACCGGTTTTCCCGGTAATCCGTATTTGGG (site TAATTAGCTCC)” the “recombinant UMI read abundance (log10)” value was 0.0073.
In the case of “TAATTCACATGGACCGGTTTTCCCGGTAATCCGTATTTGGG (site TAATTCACTCC)”, the “recombinant UMI read abundance (log10)” value is reported as 0.0061.
In the case of “TAATTGGCATGGACCGGTTTTCCCGGTAATCCGTATTTGTG (site TAATTGGCTCA)”, the “recombinant UMI read abundance (log10)” value is reported as 0.484.
In the case of “TAATTGGCATGGACCGGTTTTCCCGGTAATCCGTATTTGTG (site TACTTGGCTCA)”, the “recombinant UMI read abundance (log10)” value is reported as 0.0115.
For “TAATTGGCATGGACCGGTTTTCCCGGTAATCCGTATTTGTG (site TAGTTGGCTCA)”, the “recombinant UMI read abundance (log10)” value was 0.0118.
For “TAATTGGCATGGACCGGTTTTCCCGGTAATCCGTATTTGTG (site TATTTGGCTCA)”, the “recombinant UMI read abundance (log10)” value was 0.00466.
With “TACAAGGCATGGACCGGTTTTCCCGGTAATCCGTATTTGGT (site TACAAGGCTAC)” the “recombinant UMI read abundance (log10)” value was 0.732.
In the case of “TACACCGCATGGACCGGTTTTCCCGGTAATCCGTATTTGTA (site TACACCGCTTA)”, the “recombinant UMI read abundance (log10)” value is reported as 1.36.
